Data reported in patent US20120321896A1, “RASAGILINE MESYLATE HAVING LARGE PARTICLE SIZE AND A PROCESS FOR PREPARATION THEREOF” (priority 2010, published 2012).
Counter-ions that a name gives are not always drawn.

Conditions: volume distribution; average of three measurements; recrystallised from isopropyl alcohol, gradual cooling in around 15 hours without stirring, no milling
From the text: Measurement and characterization of particle size distributions is known in the art. It is possible to compare samples of particulate rasagiline mesylate on the basis of individual points on a cumulative particle size distribution curve. The measurements are represented as d(0.X)-Y (where X and Y are Arabic numerals), each “d” describing an individual point on a cumulative PSD curve. The number “X” represents the percentage (number, volume, or weight) of particles in the population having a nominal size up to and including “Y”. Thus, D90 or d(0.9) of greater than 255 μm is a characteristic of a PSD in which 90% (number, volume, or weight) of the particles in a population have a nominal size of about 255 μm or more (at least some particles having a nominal dimension of 255 μm) and so forth. When PSD is determined by the well-know laser-diffraction method described herein, the D90 measurement depicts a volume average.
Particle Size Distribution (PSD) is determined by laser diffraction in Malvern master Sizer 2000 equipment or its equivalent:
Spread sufficient powder in the dry powder holder of sampler holding unit and close it by the sliding cover. Operate the instrument for particle size analysis.
Report the average of three measurements.

| Particle size data (D90) [μm] | Structure (SMILES) |
| --- | --- |
| 292.2 | C#CCN[C@@H]1CCc2ccccc21 [Example-1, Rasagiline mesylate] |
| 337.1 | C#CCN[C@@H]1CCc2ccccc21 [Example-2, Rasagiline mesylate] |
